Results on 27 compounds are retold here after ChEMBL document CHEMBL5223156, “Synthesis and biological evaluation of novel N-benzyltriazolyl-hydroxamate derivatives as selective histone deacetylase 6 inhibitors” (Bioorg Med Chem, 2023).

One data set addresses Histone deacetylase 1 (Homo sapiens, UniProt Q13547). Kind of data set: Inhibition of human recombinant HDAC1 using fluorogenic substrate measured after 30 mins.
Data set [1] deals with T1, Protein deacetylase HDAC6 (Homo sapiens, UniProt Q9UBN7).
T1 sequence (Q9UBN7 whole entry): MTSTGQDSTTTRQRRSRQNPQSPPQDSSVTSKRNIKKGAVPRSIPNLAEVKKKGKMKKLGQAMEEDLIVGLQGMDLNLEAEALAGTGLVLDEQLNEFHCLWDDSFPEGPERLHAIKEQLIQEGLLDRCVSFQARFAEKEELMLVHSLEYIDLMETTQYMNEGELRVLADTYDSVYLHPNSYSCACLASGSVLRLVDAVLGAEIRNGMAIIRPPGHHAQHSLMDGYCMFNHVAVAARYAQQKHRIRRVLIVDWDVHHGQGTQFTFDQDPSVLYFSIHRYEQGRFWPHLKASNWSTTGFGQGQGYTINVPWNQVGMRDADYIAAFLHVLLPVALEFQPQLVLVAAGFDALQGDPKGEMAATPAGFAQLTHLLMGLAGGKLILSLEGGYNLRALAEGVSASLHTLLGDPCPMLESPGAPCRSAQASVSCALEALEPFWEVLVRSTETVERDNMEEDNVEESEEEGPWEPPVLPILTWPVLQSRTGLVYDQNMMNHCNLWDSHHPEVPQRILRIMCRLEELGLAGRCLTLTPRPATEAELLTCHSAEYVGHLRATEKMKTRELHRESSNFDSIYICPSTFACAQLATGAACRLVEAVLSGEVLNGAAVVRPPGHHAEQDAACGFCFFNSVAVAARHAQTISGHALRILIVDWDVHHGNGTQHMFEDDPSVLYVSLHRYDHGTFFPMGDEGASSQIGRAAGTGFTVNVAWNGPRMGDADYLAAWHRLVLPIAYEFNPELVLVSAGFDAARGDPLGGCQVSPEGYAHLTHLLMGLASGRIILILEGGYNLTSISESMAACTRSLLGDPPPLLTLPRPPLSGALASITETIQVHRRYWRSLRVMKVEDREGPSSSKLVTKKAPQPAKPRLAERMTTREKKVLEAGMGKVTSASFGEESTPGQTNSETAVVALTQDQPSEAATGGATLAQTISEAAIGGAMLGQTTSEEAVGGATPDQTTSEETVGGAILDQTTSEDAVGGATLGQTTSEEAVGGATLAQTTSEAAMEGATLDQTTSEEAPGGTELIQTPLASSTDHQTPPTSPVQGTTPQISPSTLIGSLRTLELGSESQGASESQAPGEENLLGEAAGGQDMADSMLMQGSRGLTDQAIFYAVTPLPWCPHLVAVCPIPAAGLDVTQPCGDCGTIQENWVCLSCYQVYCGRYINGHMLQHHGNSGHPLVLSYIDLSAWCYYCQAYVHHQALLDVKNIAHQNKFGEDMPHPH
Kind of data set: Inhibition of human recombinant HDAC6 using fluorogenic substrate measured after 30 mins.

For another data set, the target named is T2, Histone deacetylase 8 (Homo sapiens, UniProt Q9BY41).
T2 sequence (Q9BY41 whole entry): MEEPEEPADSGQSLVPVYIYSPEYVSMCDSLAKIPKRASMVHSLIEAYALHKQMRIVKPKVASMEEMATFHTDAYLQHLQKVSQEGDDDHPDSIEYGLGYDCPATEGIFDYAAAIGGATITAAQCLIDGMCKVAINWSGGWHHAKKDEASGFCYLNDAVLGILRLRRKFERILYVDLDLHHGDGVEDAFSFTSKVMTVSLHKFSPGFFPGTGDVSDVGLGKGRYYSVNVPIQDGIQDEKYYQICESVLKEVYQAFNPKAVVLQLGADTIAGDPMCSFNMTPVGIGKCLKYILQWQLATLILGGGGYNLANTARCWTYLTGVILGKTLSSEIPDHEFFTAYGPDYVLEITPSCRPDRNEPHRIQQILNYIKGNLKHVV
Kind of data set: Inhibition of human recombinant HDAC8 using fluorogenic substrate measured after 30 mins.

For data set [2], the target named is T3, Protein deacetylase HDAC6 (Homo sapiens) (UniProt Q9UBN7).
T3 sequence (whole entry): T1 sequence (Q9UBN7 whole entry)
Briefly: Inhibition of HDAC6 in human HeLa cells assessed as acetylated histone H3 level at 0.3 to 3 uM measured after 24 hrs by immunoblotting analysis. Type of data set: cell-based. The note with it: dose 0.3-3 µM. (In general: Immunoblotting shows a protein as a band on a membrane.)

Data set [3] addresses T3, Protein deacetylase HDAC6 (Homo sapiens). Briefly: Inhibition of HDAC6 in human SH-SY5Y cells assessed as acetylated histone H3 level at 0.3 to 3 uM measured after 24 hrs by immunoblotting analysis. Format: cell-based. The conditions noted are these: dose 0.3-3 µM.
For another data set, the target named is T4, Histone deacetylase 11 (Homo sapiens, UniProt Q96DB2).
T4 sequence (Q96DB2 whole entry): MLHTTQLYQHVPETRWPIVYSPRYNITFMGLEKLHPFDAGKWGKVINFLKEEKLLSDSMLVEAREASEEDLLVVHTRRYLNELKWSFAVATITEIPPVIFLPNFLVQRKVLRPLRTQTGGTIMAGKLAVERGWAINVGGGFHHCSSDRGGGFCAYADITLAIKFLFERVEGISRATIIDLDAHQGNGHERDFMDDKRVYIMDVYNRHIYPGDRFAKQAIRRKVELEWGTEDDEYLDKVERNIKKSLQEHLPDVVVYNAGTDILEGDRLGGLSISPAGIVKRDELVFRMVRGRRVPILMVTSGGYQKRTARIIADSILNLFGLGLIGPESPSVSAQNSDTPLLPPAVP
Kind of data set: Inhibition of human recombinant HDAC11 using fluorogenic substrate measured after 30 mins.

The next data set addresses Histone deacetylase 2 (Homo sapiens, UniProt Q92769). Briefly: Inhibition of human recombinant HDAC2 using fluorogenic substrate measured after 30 mins.
The target of a further data set is Histone deacetylase 4 (Homo sapiens, UniProt P56524). Briefly: Inhibition of human recombinant HDAC4 using fluorogenic substrate measured after 30 mins.
Histone deacetylase 4, sequence (P56524 whole entry): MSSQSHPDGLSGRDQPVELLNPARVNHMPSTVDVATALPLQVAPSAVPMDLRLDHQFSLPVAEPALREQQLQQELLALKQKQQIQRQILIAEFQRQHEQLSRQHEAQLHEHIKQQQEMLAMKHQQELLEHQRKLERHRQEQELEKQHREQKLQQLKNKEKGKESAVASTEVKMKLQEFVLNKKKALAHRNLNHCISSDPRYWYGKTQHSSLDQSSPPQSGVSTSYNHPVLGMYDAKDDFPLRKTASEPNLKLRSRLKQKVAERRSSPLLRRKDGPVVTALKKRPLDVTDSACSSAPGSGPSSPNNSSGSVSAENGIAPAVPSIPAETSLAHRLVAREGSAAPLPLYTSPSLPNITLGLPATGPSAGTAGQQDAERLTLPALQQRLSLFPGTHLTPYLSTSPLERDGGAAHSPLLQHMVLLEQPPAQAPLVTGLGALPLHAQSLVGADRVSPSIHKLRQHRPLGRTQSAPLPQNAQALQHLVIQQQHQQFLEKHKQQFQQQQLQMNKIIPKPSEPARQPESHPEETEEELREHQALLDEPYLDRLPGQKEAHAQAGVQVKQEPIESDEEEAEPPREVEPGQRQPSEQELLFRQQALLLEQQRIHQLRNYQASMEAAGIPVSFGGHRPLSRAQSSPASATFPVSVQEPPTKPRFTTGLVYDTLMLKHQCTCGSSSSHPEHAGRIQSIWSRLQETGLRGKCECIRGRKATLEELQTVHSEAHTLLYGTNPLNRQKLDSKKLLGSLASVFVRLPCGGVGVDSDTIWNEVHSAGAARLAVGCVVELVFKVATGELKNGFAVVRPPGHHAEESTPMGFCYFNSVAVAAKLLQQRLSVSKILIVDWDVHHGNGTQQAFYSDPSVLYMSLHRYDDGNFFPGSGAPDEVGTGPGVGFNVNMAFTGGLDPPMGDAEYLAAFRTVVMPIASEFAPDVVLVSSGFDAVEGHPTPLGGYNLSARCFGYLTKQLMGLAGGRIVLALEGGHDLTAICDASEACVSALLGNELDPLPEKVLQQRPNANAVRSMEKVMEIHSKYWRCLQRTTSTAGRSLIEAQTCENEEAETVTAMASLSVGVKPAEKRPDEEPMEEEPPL
Data set [4] is described as follows: Cytotoxicity against human SH-SY5Y cells assessed as cell viability measured after 36 hrs by CCK8 assay. A general note: Formazan colour is commonly taken as a measure of viable cells.

Active and inactive are the calls of the source. No cut-off for these calls is given here.

Histone deacetylase 1, sequence (Q13547 whole entry): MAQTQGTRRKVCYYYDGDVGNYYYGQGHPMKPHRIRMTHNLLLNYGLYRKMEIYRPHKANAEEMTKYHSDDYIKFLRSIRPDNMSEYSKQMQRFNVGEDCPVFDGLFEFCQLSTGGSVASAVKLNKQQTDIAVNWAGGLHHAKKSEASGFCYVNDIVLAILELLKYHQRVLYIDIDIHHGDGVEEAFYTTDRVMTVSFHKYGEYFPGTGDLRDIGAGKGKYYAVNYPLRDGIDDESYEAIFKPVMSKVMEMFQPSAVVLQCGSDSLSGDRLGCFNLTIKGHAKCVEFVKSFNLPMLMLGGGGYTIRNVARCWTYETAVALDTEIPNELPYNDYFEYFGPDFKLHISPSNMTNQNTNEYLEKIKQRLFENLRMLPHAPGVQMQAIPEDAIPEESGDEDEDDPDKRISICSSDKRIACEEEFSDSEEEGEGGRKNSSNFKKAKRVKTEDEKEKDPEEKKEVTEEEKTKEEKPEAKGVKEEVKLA
Histone deacetylase 2, sequence (Q92769 whole entry): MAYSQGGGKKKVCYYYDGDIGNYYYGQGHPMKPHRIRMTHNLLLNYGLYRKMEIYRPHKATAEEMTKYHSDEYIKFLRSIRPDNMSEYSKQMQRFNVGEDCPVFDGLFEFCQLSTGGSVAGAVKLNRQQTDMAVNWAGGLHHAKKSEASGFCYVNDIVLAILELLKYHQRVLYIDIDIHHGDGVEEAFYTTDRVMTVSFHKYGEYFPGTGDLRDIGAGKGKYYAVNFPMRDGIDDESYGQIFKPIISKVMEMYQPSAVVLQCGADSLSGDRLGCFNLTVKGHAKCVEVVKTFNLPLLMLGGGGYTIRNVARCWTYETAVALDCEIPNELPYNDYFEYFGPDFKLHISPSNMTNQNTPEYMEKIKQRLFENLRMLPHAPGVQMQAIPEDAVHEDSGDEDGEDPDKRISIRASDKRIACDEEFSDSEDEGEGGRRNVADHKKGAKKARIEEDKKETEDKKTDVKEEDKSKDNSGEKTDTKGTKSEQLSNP

As usually defined, the IC50 is the concentration that inhibits the measured activity by half. Regarding `O=C(NO)c1ccc(Cn2ncnc2-c2ccccc2F)cc1`, the IC50 at Histone deacetylase 1 is 605 nM; in [1], 11.8 nM.
For `O=C(NO)c1cccc(Cn2cncn2)c1` the same measures were 23200 nM and 11400 nM.
Take `O=C(NO)c1ccc(Cn2cnc(Br)n2)cc1`: the IC50 at Histone deacetylase 1 turned out to be 926 nM; in data set [1] it was 44.1 nM.
For `O=C(NO)c1ccc(Cn2cnc(-c3ccccc3F)n2)cc1`, in that order: 256 nM and 10 nM.
For the compound `O=C(NO)c1ccc(Cn2cncn2)cc1`, the IC50 at Histone deacetylase 1 was found to be 1440 nM; in data set [1], 91.8 nM.
For `O=C(NO)c1ccc(Cn2cnc(-c3cccc(C(F)(F)F)c3)n2)cc1`, in that order: 122 nM and 4.57 nM.
For `COc1cccc(-c2ncn(Cc3ccc(C(=O)NO)cc3)n2)c1`, in that order: 167 nM and 11.5 nM.
As for `O=C(NO)c1ccc(Cn2cnc(-c3cccc(OC(F)(F)F)c3)n2)cc1`, the IC50 is 212 nM on Histone deacetylase 1 and 13.3 nM in data set [1].
Take `O=C(NO)c1ccc(Cn2cnc(-c3c(F)cccc3F)n2)cc1`: the IC50 at Histone deacetylase 1 is 369 nM; in data set [1], 14.3 nM.
For `O=C(NO)c1cccc(Cn2cnc(-c3ccccc3)n2)c1`, in that order: 38800 nM and 1300 nM.
For `O=C(NO)c1ccc(Cn2cnc(-c3cccc(-c4ccccc4)c3)n2)cc1`, in that order: 150 nM and 11.1 nM.
For `O=C(NO)c1ccc(Cn2cnc(-c3ccccc3)n2)c(F)c1` the same measures were 455 nM and 12.4 nM.
For the compound `O=C(NO)c1cccc(Cn2ncnc2-c2ccccc2)c1`, the IC50 at Histone deacetylase 1 was 18300 nM; in data set [1], 152 nM.
For `O=C(NO)c1ccc(Cn2ncnc2-c2ccccc2)cc1`, in that order: 341 nM and 16.9 nM.
For `O=C(NO)c1ccc(Cn2cnc(-c3cccc(O)c3)n2)cc1`, in that order: 197 nM and 12.3 nM.
For `O=C(NO)c1ccc(Cn2cnc(-c3cc(F)cc(F)c3)n2)cc1`, in that order: 256 nM and 19.6 nM.
For `O=C(NO)c1ccc(Cn2cnc(-c3ccc(F)cc3)n2)cc1`, the values for the 50% inhibitory concentration (IC50) (at Histone deacetylase 1; in [1]) were 269 nM and 12.6 nM, respectively.
For `O=C(NO)c1ccc(Cn2cnc(-c3cccnc3)n2)cc1` the same measures were 356 nM and 27.9 nM.
For `O=C(NO)c1ccc(Cn2cnc(-c3ccccc3)n2)nc1`, in that order: 431 nM and 20.6 nM.
On to `Cc1cccc(-c2ncn(Cc3ccc(C(=O)NO)cc3)n2)c1`, for which the IC50 on Histone deacetylase 1 turned out to be 168 nM; in data set [1], 14.7 nM.
As for `O=C(NO)c1ccc(Cn2cnc(-c3ccccc3F)n2)c(F)c1`, the concentration for half-maximal inhibition (IC50) was 813 nM on Histone deacetylase 8; 299 nM on Histone deacetylase 1; 8090 nM at Histone deacetylase 11; 7.09 nM in [1]; 509 nM at Histone deacetylase 2; 4040 nM on Histone deacetylase 4. Further, the inhibition result in data set [2] and in data set [3] was “Active” throughout. The IC50 at 36 h in [4] is 8210 nM.
As for `O=C(NO)c1ccc(Cn2cnc(-c3cccc(F)c3)n2)cc1`, the figures for the IC50 (on Histone deacetylase 1; in [1]) were 268 nM and 8.73 nM, respectively.
Consider `O=C(NO)c1ccc(Cn2cnc(-c3cccc(Cl)c3)n2)cc1`, for which the concentration for half-maximal inhibition (IC50) at Histone deacetylase 1 was 111 nM; in [1], 6.4 nM.
For `O=C(NO)c1ccc(Cn2cnc(-c3cccs3)n2)cc1` the same measures were 249 nM and 10.4 nM.
For `O=C(NO)c1ccc(Cn2ncnc2-c2cccs2)cc1` the same measures were 427 nM and 18.3 nM.
`O=C(NO)c1ccc(Cn2cnc(-c3ccccc3)n2)cc1`: the IC50 at Histone deacetylase 1 stood at 206 nM; in [1] it was 9.11 nM.
Consider `CN1CCc2c(c3ccccc3n2Cc2ccc(C(=O)NO)cc2)C1` [TUBASTATIN A], for which the IC50 at 36 h in data set [4] is […].
